Measured values published in patent publication US20160045503A1, “FORMULATIONS CONTAINING REVERSIBLE COVALENT COMPOUNDS” (PRINCIPIA BIOPHARMA INC., priority 2012, published 2016).
One block for each compound: values may come before it.

How the values were obtained:
[1] = biological target: human recombinant Btk (Homo sapiens, UniProt Q06187); experiment: Btk Enzymatic Activity Assay (Caliper-based kinase assay); assay type: biochemical; conditions: human recombinant Btk 2 nM, ATP 40 uM, peptide substrate 1 uM, room temperature, 3 h
Sequence of human recombinant Btk (Q06187 whole entry): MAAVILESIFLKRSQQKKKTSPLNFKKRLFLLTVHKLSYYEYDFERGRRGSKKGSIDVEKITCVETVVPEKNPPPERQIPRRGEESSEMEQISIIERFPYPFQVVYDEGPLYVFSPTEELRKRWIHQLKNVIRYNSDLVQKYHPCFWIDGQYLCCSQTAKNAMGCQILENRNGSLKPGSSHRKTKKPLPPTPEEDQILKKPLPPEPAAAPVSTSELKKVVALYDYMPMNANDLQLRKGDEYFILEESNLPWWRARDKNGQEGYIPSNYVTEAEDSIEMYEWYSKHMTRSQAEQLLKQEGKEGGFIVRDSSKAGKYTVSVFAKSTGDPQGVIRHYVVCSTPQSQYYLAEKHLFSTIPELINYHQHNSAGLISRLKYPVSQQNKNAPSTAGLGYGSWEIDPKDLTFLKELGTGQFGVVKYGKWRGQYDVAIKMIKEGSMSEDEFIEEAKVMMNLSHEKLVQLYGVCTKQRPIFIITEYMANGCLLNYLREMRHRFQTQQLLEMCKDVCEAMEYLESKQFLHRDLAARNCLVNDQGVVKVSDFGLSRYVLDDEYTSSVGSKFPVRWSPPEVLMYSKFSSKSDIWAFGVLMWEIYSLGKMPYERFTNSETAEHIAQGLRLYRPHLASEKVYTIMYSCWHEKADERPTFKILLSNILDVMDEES
Method: A Caliper-based kinase assay (Caliper Life Sciences, Hopkinton, Mass.) was used to measure inhibition of Btk kinase activity of a compound of Formula (I). […] The reaction was then terminated with EDTA, final concentration 20 mM and the phosphorylated reaction product was quantified on a Caliper Desktop Profiler (Caliper LabChip 3000). […] This value is presented as the IC50.

[2] = test system: protein target; experiment: Reversibility of Binding (compound in solution before and after denaturation or digestion of the target, HPLC-MS/MS); conditions: for Compound in solution in the denatured or digested state?: after denaturation with 5 M guanidine hydrochloride and digestion with trypsin; for compound in solution following perturbation of the target: perturbed state; for Compound in solution in the native state?: target in excess over compound
Method: The following approach was developed to differentiate compounds that form irreversible bonds with their targets, such as acrylamide compounds, from compound that bind reversibly. […] The reactions were then treated with perturbations including both denaturation with 5 M guanidine hydrochloride and digestion with trypsin, disrupting proper folding of the target. […] The concentration of compound in solution was assessed both preceding and following perturbation using high performance liquid chromatography (HPLC) coupled to tandem mass spectrometry.

[3] = Determination of Bioavailability, stomach (oral gavage) v. intraduodenal administration; assay type: in vivo, Rats; conditions: rat; for % increase: ID versus PO; for AUC / Cmax / bioavailability: plasma
Method: Rats with surgically implanted intra-duodenal catheters were obtained commercially. Rats were dosed with solution or suspension of (S)-2-(2-((4-amino-3-(2-fluoro-4-phenoxyphenyl)-1H-pyrazolo[3,4-d]pyrimidin-1-yl)methyl)pyrrolidine-1-carbonyl)-4-methyl-4-morpholinopent-2-enenitrile; via bolus injection: oral gavage was done to measure exposure after oral dosing, or dosing via administration through the intra-duodenal catheter to measure exposure bypassing the stomach. […] Blood was withdrawn at time points out to 24 hours and compound quantitated via LC/MS/MS to obtain plasma concentrations. PK parameters were calculated via commercially available software and measures of exposure were used to assess differences in dosing routes. The table below summarizes exposures as measured by area under the curve (AUC), concentration at its maximum (Cmax), and bioavailability.

[4] = 20 mg/kg, ID (intra-duodenal), 20 mg/kg in 15% cyclodextrin, Experiment 1
[5] = 20 mg/kg, ID (intra-duodenal), 20 mg/kg in 15% cyclodextrin, Experiment 2
[6] = 100 mg/kg, ID 100 mg/kg, 0.5% xanthum gum suspension
[7] = po, 20 mg/kg, 20 mg/kg in 15% cyclodextrin, Experiment 1
[8] = po, 20 mg/kg, 20 mg/kg in 15% cyclodextrin, Experiment 2
[9] = po, 100 mg/kg, PO 100 mg/kg, 0.5% xanthum gum suspension

IC50 [1]: 3.7 nM
Compound: N#CC(=CC1CC1)C(=O)N1CCCC1Cn1nc(-c2ccc(Oc3ccccc3)cc2)c2c(N)ncnc21 (stereo not shown) [Cpd 2, 2-(2-((4-amino-3-(4-phenoxyphenyl)-1H-pyrazolo[3,4-d]pyrimidin-1-yl)methyl)pyrrolidine-1-carbonyl)-3-cyclopropylacrylonitrile]

IC50 [1]: 130 nM
Compound: CC(C)(C)C=C(C#N)C(=O)N1CCC(n2nc(-c3ccc(Oc4ccccc4)cc3)c3c(N)ncnc32)CC1 [Cpd 8, 2-(4-(4-amino-3-(4-phenoxyphenyl)-1H-pyrazolo[3,4-d]pyrimidin-1-yl)piperidine-1-carbonyl)-4,4-dimethylpent-2-enenitrile]

IC50 [1]: 5.4 nM
Compound: CC(C)(C)C=C(C#N)C(=O)N1CCCC1Cn1nc(-c2ccc(Oc3ccccc3)cc2)c2c(N)ncnc21 (stereo not shown) [Cpd 10, 2-(2-((4-amino-3-(4-phenoxyphenyl)-1H-pyrazolo[3,4-d]pyrimidin-1-yl)methyl)pyrrolidine-1-carbonyl)-4,4-dimethylpent-2-enenitrile]

IC50 [1]: 1.4 nM
Compound: CNC(C)(C)C=C(C#N)C(=O)N1CCC[C@@H]1Cn1nc(C2(Oc3ccccc3)C=CC=CC2F)c2c(N)ncnc21 (stereo partly drawn) [Cpd 83A, (R)-2-(2-((4-amino-3-(2-fluoro-1-phenoxyphenyl)-1H-pyrazolo[3,4-d]pyrimidin-1-yl)methyl)pyrrolidine-1-carbonyl)-4-methyl-4-(methylamino)pent-2-enenitrile]

IC50 [1]: 52 nM
Compound: N#CC(=CC1(N)CC1)C(=O)N1CCC[C@@H]1Cn1nc(-c2ccc(Oc3ccccc3)cc2F)c2c(N)ncnc21 [Cpd 90A, (R)-2-(2-((4-amino-3-(2-fluoro-4-phenoxyphenyl)-1H-pyrazolo[3,4-d]pyrimidin-1-yl)methyl)pyrrolidine-1-carbonyl)-3-(1-aminocyclopropyl)acrylonitrile]

% increase ([3]; 20 mg/kg in 15% cyclodextrin, Experiment 1): 409% | % increase ([3]; 20 mg/kg in 15% cyclodextrin, Experiment 2): 232% | % increase ([3]; 100 mg/kg, 0.5% xanthum gum suspension): 220% | AUC [3, 4]: 630 ng·h/mL | Cmax [3, 4]: 1400 ng/mL | AUC [3, 5]: 1500 ng·h/mL | Cmax [3, 5]: 1650 ng/mL | bioavailability [3, 4]: 27% | bioavailability [3, 5]: 64.6% | AUC [3, 6]: 1900 ng·h/mL | Cmax [3, 6]: 870 ng/mL | bioavailability [3, 6]: 16.3% | AUC [3, 7]: 154 ng·h/mL | Cmax [3, 7]: 145 ng/mL | AUC [3, 8]: 647 ng·h/mL | Cmax [3, 8]: 406 ng/mL | bioavailability [3, 7]: 6.6% | bioavailability [3, 8]: 27.8% | AUC [3, 9]: 858 ng·h/mL | Cmax [3, 9]: 149 ng/mL | bioavailability [3, 9]: 7.4%
Compound: CC(C)(C=C(C#N)C(=O)N1CCC[C@H]1Cn1nc(-c2ccc(Oc3ccccc3)cc2F)c2c(N)ncnc21)N1CCOCC1 [Cpd 95B, (S)-2-(2-((4-amino-3-(2-fluoro-4-phenoxyphenyl)-1H-pyrazolo[3,4-d]pyrimidin-1-yl)methyl)pyrrolidine-1-carbonyl)-4-methyl-4-morpholinopent-2-enenitrile]

IC50 [1]: 34 nM
Compound: CC(C)(C)C=C(C#N)C(=O)N1CCC[C@H]1Cn1cc(-c2ccc(Oc3cccc(F)c3F)cc2)c2c(N)ncnc21 [Cpd 173B, (S)-2-(2-((4-amino-5-(4-(2,3-difluorophenoxy)phenyl)-7H-pyrrolo[2,3-d]pyrimidin-7-yl)methyl)pyrrolidine-1-carbonyl)-4,4-dimethylpent-2-enenitrile]

Continued, compound first:

Compound: COc1cc(-c2nn(CC3CCCN3C(=O)C(C#N)=CC3CC3)c3ncnc(N)c23)ccc1Oc1ccc(Cl)c(Cl)c1 (stereo not shown) [Cpd 5]
IC50 [1]: 1 nM

Compound: N#CC(=CC1CC1)C(=O)N1CCC[C@@H]1Cn1nc(-c2ccc(Oc3ccccc3)cc2F)c2c(N)ncnc21 [Cpd 27A, (R)-2-(2-((4-amino-3-(2-fluoro-4-phenoxyphenyl)-1H-pyrazolo[3,4-d]pyrimidin-1-yl)methyl)pyrrolidine-1-carbonyl)-3-cyclopropylacrylonitrile]
Compound in solution in the denatured or digested state? [2]: yes | compound in solution following perturbation of the target [2]: returned to solution | Compound in solution in the native state? ([2]; before perturbation): no

Compound: N#CC(=CC1CC1)C(=O)N1CCC[C@H]1Cn1nc(-c2ccc(Oc3c(F)cccc3F)cc2F)c2c(N)ncnc21 [Cpd 44B, (S)-2-(2-((4-amino-3-(2-fluoro-4-(2,6-difluorophenoxy)phenyl)-1H-pyrazolo[3,4-d]pyrimidin-1-yl)methyl)pyrrolidine-1-carbonyl)-3-cyclopropylacylonitrile]
IC50 [1]: 3 nM

Compound: CC(C)C=C(C#N)C(=O)N1CCC[C@H]1Cn1nc(-c2ccc(Oc3cccc(F)c3F)cc2F)c2c(N)ncnc21 [Cpd 102B, (S)-2-(2-((4-amino-3-(4-(2,3-difluorophenoxy)-2-fluorophenyl)-1H-pyrazolo[3,4-d]pyrimidin-1-yl)methyl)pyrrolidine-1-carbonyl)-4-methylpent-2-enenitrile]
IC50 [1]: 6 nM

Compound: CNC(C)(C)C=C(C#N)C(=O)N1CCC[C@H]1Cn1nc(-c2ccc(Oc3cccc(F)c3F)cc2F)c2c(N)ncnc21 [Cpd 105B]
IC50 [1]: 25.5 nM

Compound: C[C@@H](Cn1nc(-c2ccc(Oc3ccccc3)cc2F)c2c(N)ncnc21)NC(=O)C(C#N)=CC(C)(C)N [Cpd 195, (S)-4-amino-N-(1-(4-amino-3-(2-fluoro-4-phenoxyphenyl)-1H-pyrazolo[3,4-d]-pyrimidin-1-yl)propan-2-yl)-2-cyano-4-methylpent-2-enamide]
IC50 [1]: 6 nM

Compound: C=CC(=O)N1CCC[C@@H](n2nc(-c3ccc(Oc4ccccc4)cc3)c3c(N)ncnc32)C1 [reference compound]
Compound in solution in the denatured or digested state? [2]: no | depletion of compound from solution in the native (folded) state ([2]; before perturbation): depleted from solution | compound in solution following perturbation of the target [2]: depleted from solution | Compound in solution in the native state? ([2]; before perturbation): no

Compound: (S)-4-amino-2-(2-((4-amino-3-(4-(2,3-difluorophenoxy)-2-fluorophenyl)-1H-pyrazolo[3,4-d]pyrimidin-1-yl)methyl)pyrimidine-1-carbonyl)-4-methylpent-2-enenitrile [Cpd 104B]
IC50 [1]: 20 nM
